Data published in patent US10759810B2 (AO “TATKHIMFARMPREPARATY”, priority 2016, dated 2020).
Converted amounts (≈) assume the structure as drawn.

Legend:
S. aureus MRSA 1173 = assay: MIC on clinical strain; format: cell-based, Staphylococcus aureus
Method: (§1) Measurement of antibacterial activity was carried out on the strains of Staphylococcus aureus ATCC 29213 (museum strain), Staphylococcus epidermidis (clinical isolate), Micrococcus luteus (clinical isolate), Bacillus subtilis 168 (museum strain), Escherichia coli ATCC 25922 (museum strain), Salmonella typhimurium TA100 (museum strain), Pseudomonas aeruginosa ATCC 27853 (museum strain). A comparative assessment of the spectrum of antibacterial action on reference strains and clinical isolates of gram-positive microorganisms was carried out using a micromethod for determining the minimum inhibitory concentration (MIC) using serial dilutions in Mueller-Hinton broth using 96-well sterile plates.
(§2) The first lowest concentration of the antibiotic (from a series of successive dilutions), where bacterial growth is not visually determined, is considered to be the minimum inhibitory concentration (MIC).
(§3) For the preparation of inoculum (infectious material used for artificial contamination), intended for the study of antibacterial activity, was used a pure daily culture of bacteria grown on a dense nutrient medium (agar LB medium). In a sterile isotonic solution of sodium chloride, a suspension of microorganisms was prepared, adjusting the inoculum density to 0.5 according to the McFarland standard (1.5·10^8 CFU/ml). Then, the resulting inoculum was diluted to a concentration of 10^7 CFU/ml with LB-broth. The inoculum was used for 15 minutes after preparation; the purity of the bacterial strains was monitored before each experiment.
(§4) 100 μl of Muller-Hinton broth was added to the wells of each plate; the test base was introduced into the first well at a concentration of 128 μg/ml in a volume of 100 μl and its concentration was adjusted to 0.25 μg/ml by consecutive two-fold dilution. […] Each preparation in the experiment was titrated three times. […] In addition, the purity of nutrient media and solvents was monitored. The plates were incubated in a thermostat at […] for 24 hours.
(§5) The growth of cultures was assessed visually, comparing the growth of microorganisms in the presence of test compounds with the growth of culture without them.

S. aureus MRSA 1131 = assay: MIC on clinical strain; format: cell-based, Staphylococcus aureus
Method: as §1, §2, §3, §4, §5

S. aureus MRSA 967 = assay: MIC on clinical strain; format: cell-based, Staphylococcus aureus
Method: as §1, §2, §3, §4, §5

S. aureus MRSA 981 = assay: MIC on clinical strain; format: cell-based, Staphylococcus aureus
Method: as §1, §2, §3, §4, §5

S. aureus MRSA 2020 = assay: MIC on clinical strain; format: cell-based, Staphylococcus aureus
Method: as §1, §2, §3, §4, §5

S. aureus MRSA 1053 = assay: MIC on clinical strain; format: cell-based, Staphylococcus aureus
Method: as §1, §2, §3, §4, §5

S. aureus MRSA 1143 = assay: MIC on clinical strain; format: cell-based, Staphylococcus aureus
Method: as §1, §2, §3, §4, §5

S. aureus MRSA 1130 = assay: MIC on clinical strain; format: cell-based, Staphylococcus aureus
Method: as §1, §2, §3, §4, §5

S. aureus MRSA 1163 = assay: MIC on clinical strain; format: cell-based, Staphylococcus aureus
Method: as §1, §2, §3, §4, §5

S. aureus MRSA 1065 = assay: MIC on clinical strain; format: cell-based, Staphylococcus aureus
Method: as §1, §2, §3, §4, §5

S. aureus MRSA 983 = assay: MIC on clinical strain; format: cell-based, Staphylococcus aureus
Method: as §1, §2, §3, §4, §5

S. aureus MRSA 1168 = assay: MIC on clinical strain; format: cell-based, Staphylococcus aureus
Method: as §1, §2, §3, §4, §5

[1] = tested on: Staphylococcus epidermidis (clinical isolate); assay: MIC, serial dilutions in Mueller-Hinton broth; format: cell-based
Method: as §1, §2, §3, §4, §5

[2] = tested on: Pseudomonas aeruginosa ATCC 27853 (museum strain); assay: MIC, serial dilutions in Mueller-Hinton broth; format: cell-based
Method: as §1, §2, §3, §4, §5

[3] = tested on: Bacillus subtilis 168 (museum strain); assay: MIC, serial dilutions in Mueller-Hinton broth; format: cell-based
Method: as §1, §2, §3, §4, §5

[4] = tested on: Salmonella typhimurium TA100 (museum strain); assay: MIC, serial dilutions in Mueller-Hinton broth; format: cell-based
Method: as §1, §2, §3, §4, §5

[5] = tested on: Micrococcus luteus (clinical isolate); assay: MIC, serial dilutions in Mueller-Hinton broth; format: cell-based
Method: as §1, §2, §3, §4, §5

[6] = tested on: Staphylococcus aureus ATCC 29213 (museum strain); assay: MIC, serial dilutions in Mueller-Hinton broth; format: cell-based
Method: as §1, §2, §3, §4, §5

[7] = tested on: Escherichia coli ATCC 25922 (museum strain); assay: MIC, serial dilutions in Mueller-Hinton broth; format: cell-based
Method: as §1, §2, §3, §4, §5

[8] = tested on: microorganism strains under study; assay: Antibacterial activity (MIC), whole strain panel; format: cell-based; details: in words, from Table 1
Method: as §1, §2
(§6) For the preparation of inoculum (infectious material used for artificial contamination), intended for the study of antibacterial activity, was used a pure daily culture of bacteria grown on a dense nutrient medium (agar LB medium). […] The inoculum was used for 15 minutes after preparation; the purity of the bacterial strains was monitored before each experiment. […]

[9] = tested on: gram-positive microorganisms; assay: Antibacterial activity (MIC), gram-positive strains; format: cell-based; details: in words, versus comparison drugs
Method: as §1, §2, §6

[10] = inoculum 10^7 CFU/ml, gram-positive
[11] = inoculum 10^7 CFU/ml, gram-negative

Molecule: CO/N=C(\C(=O)N[C@@H]1C(=O)N2C(C(=O)O)=C(CSc3nc(=O)c(O)nn3C)CS[C@H]12)c1csc(N)n1 [Ceftriaxon, ceftriaxone]
- The value of the MIC, S. aureus MRSA 1173 (S. aureus MRSA 1173; inoculum 10^7 CFU/ml): >64 µg/mL
- The value of the MIC, S. aureus MRSA 1131 (S. aureus MRSA 1131; inoculum 10^7 CFU/ml): >64 µg/mL
- The value of the MIC, S. aureus MRSA 967 (S. aureus MRSA 967; inoculum 10^7 CFU/ml): >64 µg/mL
- The value of the MIC, S. aureus MRSA 981 (S. aureus MRSA 981; inoculum 10^7 CFU/ml): >64 µg/mL
- The value of the MIC, S. aureus MRSA 2020 (S. aureus MRSA 2020; inoculum 10^7 CFU/ml): 2 µg/mL
- The value of the MIC, S. aureus MRSA 1053 (S. aureus MRSA 1053; inoculum 10^7 CFU/ml): >64 µg/mL
- The value of the MIC, S. aureus MRSA 1143 (S. aureus MRSA 1143; inoculum 10^7 CFU/ml): >64 µg/mL
- The value of the MIC, S. aureus MRSA 1130 (S. aureus MRSA 1130; inoculum 10^7 CFU/ml): >64 µg/mL
- The value of the MIC, S. aureus MRSA 1163 (S. aureus MRSA 1163; inoculum 10^7 CFU/ml): >64 µg/mL
- The value of the MIC, S. aureus MRSA 1065 (S. aureus MRSA 1065; inoculum 10^7 CFU/ml): >64 µg/mL
- The value of the MIC, S. aureus MRSA 983 (S. aureus MRSA 983; inoculum 10^7 CFU/ml): >64 µg/mL
- The value of the MIC, S. aureus MRSA 1168 (S. aureus MRSA 1168; inoculum 10^7 CFU/ml): 0.5 µg/mL

Molecule: 1-cyclopropyl-6-fluoro-7-(4-((5-hydroxy-2,4-bis(hydroxymethyl)-6-methylpyridine-3-yl) methyl) piperazinyl)-4-oxo-1,4-dihydroquinolin-3-carboxylic acid [Compound I-9]
- MIC, S. epidermidis [1, 10]: 8 µg/mL
- MIC, P. aerugenosa [2, 11]: >64 µg/mL
- MIC, B. subtilis [3, 10]: 4 µg/mL
- MIC, S. typhimurium [4, 11]: 4 µg/mL
- MIC, M. luteus [5, 10]: 2 µg/mL
- MIC, S. aureus [6, 10]: 0.5 µg/mL
- MIC, E. coli [7, 11]: 64 µg/mL
- antibacterial activity against the microorganism strains under study [8]: most active
- antibacterial action with respect to gram-positive microorganisms [9]: comparable with the comparison drugs

Molecule: CN[C@H](CC(C)C)C(=O)N[C@H]1C(=O)N[C@@H](CC(N)=O)C(=O)N[C@H]2C(=O)N[C@H]3C(=O)N[C@H](C(=O)N[C@H](C(=O)O)c4cc(O)cc(O)c4-c4cc3ccc4O)[C@H](O)c3ccc(c(Cl)c3)Oc3cc2cc(c3O[C@@H]2O[C@H](CO)[C@@H](O)[C@H](O)[C@H]2O[C@H]2C[C@](C)(N)[C@H](O)[C@H](C)O2)Oc2ccc(cc2Cl)[C@H]1O [Vancomycin, vancomycin]
- MIC (S. aureus MRSA 1173; Staphylococcus aureus, MRSA, read-out: The value of the MIC, S. aureus MRSA 1173): 2 µg/mL (≈ 1.38 µM)
- MIC (S. aureus MRSA 1131; Staphylococcus aureus, MRSA, read-out: The value of the MIC, S. aureus MRSA 1131): 0.5 µg/mL (≈ 0.345 µM)
- MIC (S. aureus MRSA 967; Staphylococcus aureus, MRSA, read-out: The value of the MIC, S. aureus MRSA 967): 4 µg/mL (≈ 2.76 µM)
- MIC (S. aureus MRSA 981; Staphylococcus aureus, MRSA, read-out: The value of the MIC, S. aureus MRSA 981): 2 µg/mL (≈ 1.38 µM)
- MIC (S. aureus MRSA 2020; Staphylococcus aureus, MRSA, read-out: The value of the MIC, S. aureus MRSA 2020): 0.5 µg/mL (≈ 0.345 µM)
- MIC (S. aureus MRSA 1053; Staphylococcus aureus, MRSA, read-out: The value of the MIC, S. aureus MRSA 1053): 2 µg/mL (≈ 1.38 µM)
- MIC (S. aureus MRSA 1143; Staphylococcus aureus, MRSA, read-out: The value of the MIC, S. aureus MRSA 1143): 1 µg/mL (≈ 0.69 µM)
- MIC (S. aureus MRSA 1130; Staphylococcus aureus, MRSA, read-out: The value of the MIC, S. aureus MRSA 1130): 1 µg/mL (≈ 0.69 µM)
- MIC (S. aureus MRSA 1163; Staphylococcus aureus, MRSA, read-out: The value of the MIC, S. aureus MRSA 1163): 2 µg/mL (≈ 1.38 µM)
- MIC (S. aureus MRSA 1065; Staphylococcus aureus, MRSA, read-out: The value of the MIC, S. aureus MRSA 1065): 1 µg/mL (≈ 0.69 µM)
- MIC (S. aureus MRSA 983; Staphylococcus aureus, MRSA, read-out: The value of the MIC, S. aureus MRSA 983): 2 µg/mL (≈ 1.38 µM)
- MIC (S. aureus MRSA 1168; Staphylococcus aureus, MRSA, read-out: The value of the MIC, S. aureus MRSA 1168): 0.5 µg/mL (≈ 0.345 µM)
- MIC ([1]; Staphylococcus epidermidis, read-out: MIC, S. epidermidis): 4 µg/mL (≈ 2.76 µM)
- MIC ([2]; Pseudomonas aeruginosa, ATCC27853, read-out: MIC, P. aerugenosa): > 64 µg/mL
- MIC ([3]; Bacillus subtilis, read-out: MIC, B. subtilis): 64 µg/mL (≈ 44.2 µM)
- MIC ([4]; Salmonella enterica, TYPHIMURIUM, read-out: MIC, S. typhimurium): 64 µg/mL (≈ 44.2 µM)
- MIC ([5]; Micrococcus luteus, read-out: MIC, M. luteus): 4 µg/mL (≈ 2.76 µM)
- MIC ([6]; Staphylococcus aureus, ATCC29213, read-out: MIC, S. aureus): 4 µg/mL (≈ 2.76 µM)
- MIC ([7]; Escherichia coli, ATCC25922, read-out: MIC, E. coli): 64 µg/mL (≈ 44.2 µM)
